Results published in article PMC6264767 (Molecules, 2011).
Read-outs that look alike come from different tables or passages of the source.

Columns and labels:
[1] = test system: Vesicular stomatitis virus; assay: microbe, parasite or virus in culture; format: cell-based; settings: HEL, read-out: EC50 Vesicular stomatitis virus
HSV-1 TK^− KOS ACV^r = assay: microbe, parasite or virus in culture; format: cell-based, herpes simplex virus-1; settings: Human alphaherpesvirus 1, HEL
HEL cell cultures = settings: for MCC (minimum cytotoxic concentration): human
HSV-2 (G) = assay: microbe, parasite or virus in culture; format: cell-based, herpes simplex virus type 2; settings: Human alphaherpesvirus 2, HEL
HSV-1 (KOS) = assay: microbe, parasite or virus in culture; format: cell-based, herpes simplex virus type 1; settings: Human alphaherpesvirus 1, HEL
Vaccinia virus = assay: microbe, parasite or virus in culture; format: cell-based; settings: Orthopoxvirus vaccinia, HEL
[2] = test system: Feline Corona Virus (FIPV); assay: microbe, parasite or virus in culture; format: cell-based; settings: Alphacoronavirus 1, CRFK, read-out: EC50 Feline Corona Virus (FIPV)
Feline Herpes Virus = assay: organism not typed; format: cell-based; settings: CRFK, read-out: EC50 Feline Herpes Virus
in vitro = settings: cat
[3] = read-out: EC50 HSV-1 TK^− KOS ACV^r
[4] = read-out: inhibitory activity against HSV-1 TK^− KOS (ACV^r), one range given for several viruses
[5] = read-out: inhibitory activity against HSV-2 (G), one range given for several viruses
[6] = read-out: inhibitory activity against HSV-1 (KOS), one range given for several viruses

Compound | melting point [°C] | EC50 [1] [µM] | EC50 (HSV-1 TK^− KOS ACV^r; [3]) [µM] | MCC (minimum cytotoxic concentration) (HEL cell cultures) [µM] | EC50 (HSV-2 (G); read-out: EC50 HSV-2 (G)) [µM] | EC50 (HSV-1 (KOS); read-out: EC50 HSV-1 (KOS)) [µM] | EC50 (Vaccinia virus; read-out: EC50 Vaccinia virus) [µM] | EC50 [2] [µM] | EC50 (Feline Herpes Virus) [µM] | CC50 (in vitro) [µM] | EC50 (HSV-1 TK^− KOS ACV^r; [4]) [µM] | EC50 (HSV-2 (G); [5]) [µM] | EC50 (HSV-1 (KOS); [6]) [µM] | EC50 (Vaccinia virus; read-out: inhibitory activity against vaccinia virus, one range given for several viruses) [µM] | cytostatic activity at 100 µM (HEL cell cultures; 100 µM)
O=c1oc2ccccc2c(O)c1C(c1ccc(Br)cc1)c1c(O)c2ccccc2oc1=O | 267.2 | – | – | – | – | – | – | – | – | – | – | – | – | – | –
Nc1nc2c(ncn2COCCO)c(=O)[nH]1 [Acyclovir, reference compound] | – | > 250 | 20 | >250 | 0.35 | 0.3 | > 250 | – | – | – | – | – | – | – | –
O=c1[nH]c(=O)n([C@H]2C[C@H](O)[C@@H](CO)O2)cc1/C=C/Br [Brivudin, (E)-5-(2-bromovinyl)-2’-deoxyuridine, reference compound] | – | > 250 | 50 | >250 | 182 | 0.06 | 3.2 | – | – | – | – | – | – | – | –
Nc1ccn(C[C@@H](CO)OCP(=O)(O)O)c(=O)n1 [Cidofovir, (S)-1-[3-hydroxy-2-(phosphonyl-methoxy)propyl]cytosine, reference compound] | – | > 250 | 1.5 | >250 | 1.5 | 0.9 | 7.9 | – | – | – | – | – | – | – | –
O=c1oc2ccccc2c(O)c1C(c1ccccc1)c1c(O)c2ccccc2oc1=O [Compound 1, 3,3′-(Benzilidene)-bis-[4-hydroxycoumarin]] | – | – | – | – | – | – | – | 7.5 | 9.1 | 43 | – | – | – | – | –
O=c1oc2ccccc2c(O)c1C(c1cccc(Br)c1)c1c(O)c2ccccc2oc1=O [Compound 3, 3,3′-(3-Bromobenzylidene)-bis-[4-hydroxycoumarin]] | 287 | > 20 | 9 | – | 9 | 9 | 11 | – | – | – | 9 to 12 | 9 to 12 | 9 to 12 | 9 to 12 | –
O=c1oc2ccccc2c(O)c1C(c1ccc(Cl)cc1)c1c(O)c2ccccc2oc1=O [Compound 4, 3,3’-(4-Chlorobenzylidene)-bis-[4-hydroxycoumarin]] | – | – | – | – | – | – | – | 9.1 | 7.6 | 45 | – | – | – | – | –
COc1ccccc1C(c1c(O)c2ccccc2oc1=O)c1c(O)c2ccccc2oc1=O [Compound 5, 3,3′-(2-Methoxybenzylidene)bis[4-hydroxycoumarin]] | – | – | – | – | – | – | – | 7.5 | 5 | 36 | – | – | – | – | –
O=c1oc2ccccc2c(O)c1C(c1ccc(F)cc1)c1c(O)c2ccccc2oc1=O [Compound 6, 3,3′-(4-Fluorobenzylidene)-bis-[4-hydroxycoumarin]] | 214.5 | – | – | – | – | – | – | 7.7 | 8.1 | 39 | – | – | – | – | –
O=c1oc2ccccc2c(O)c1C(c1ccc(C(F)(F)F)cc1)c1c(O)c2ccccc2oc1=O [Compound 7, 3,3′-(4-Trifluoromethylbenzylidene)-bis-[4-hydroxycoumarin]] | 271.3 | > 4 | > 4 | 20 | > 4 | > 4 | > 4 | – | – | – | – | – | – | – | –
O=c1oc2ccccc2c(O)c1C(c1ccc([N+](=O)[O-])cc1)c1c(O)c2ccccc2oc1=O [Compound 8, 3,3′-(4-Nitrobenzylidene)-bis-[4-hydroxycoumarin]] | – | > 20 | > 20 | 100 | > 20 | > 20 | > 20 | 8.5 | 6.9 | 41 | – | – | – | – | –
O=c1oc2ccccc2c(O)c1C(c1ccccc1[N+](=O)[O-])c1c(O)c2ccccc2oc1=O [Compound 9, 3,3’-(2-Nitrobenzylidene)-bis-[4-hydroxycoumarin]] | 202 | – | – | – | – | – | – | 8.3 | 14 | 34 | – | – | – | – | –
CSc1ccc(C(c2c(O)c3ccccc3oc2=O)c2c(O)c3ccccc3oc2=O)cc1 [Compound 11, 3,3′-(4-Methyltiobenzylidene)-bis-[4-hydroxycoumarin]] | 258.7 | > 20 | > 20 | 100 | > 20 | > 20 | > 20 | – | – | – | – | – | – | – | –
O=c1oc2ccccc2c(O)c1C(c1ccc(O)c(O)c1)c1c(O)c2ccccc2oc1=O [Compound 13, 3,3′-(3,4-Dihydroxybenzylidene)-bis-[4-hydroxycoumarin]] | 227.5 | > 20 | > 20 | 100 | > 20 | > 20 | > 20 | – | – | – | – | – | – | – | –
COc1ccc(OC)c(C(c2c(O)c3ccccc3oc2=O)c2c(O)c3ccccc3oc2=O)c1 [Compound 14, 3,3′-(2,5-Dimethoxybenzylidene)-bis-[4-hydroxycoumarin]] | 181.6 | > 100 | > 100 | >100 | > 100 | > 100 | > 100 | – | – | – | – | – | – | – | –
COc1cc(C(c2c(O)c3ccccc3oc2=O)c2c(O)c3ccccc3oc2=O)cc([N+](=O)[O-])c1O [Compound 15, 3,3′-(4-Hydroxy-3-methoxy-5-nitrobenzylidene)-bis-[4-hydroxycoumarin]] | 199.6 | > 100 | > 100 | >100 | > 100 | > 100 | > 100 | – | – | – | – | – | – | – | –
O=c1oc2ccccc2c(O)c1C1c2cc([N+](=O)[O-])ccc2Oc2c1c(=O)oc1ccccc21 (stereo not drawn) [Compound 19, 3-[6-Oxo-(1H)-18-nitrobenzopyrano[4,3-b]benzopyran-7-yl]-4-hydroxycoumarin] | 315.7 | > 100 | 50 | >100 | 45 | 50 | > 100 | – | – | – | 45 to 50 | 45 to 50 | 45 to 50 | – | no cytotostatic activity
COc1cc(OC)c2c(c1)Oc1c(c(=O)oc3ccccc13)C2c1c(O)c2ccccc2oc1=O (stereo not drawn) [Compound 20, 3-[6-oxo-(1H)-15,17-dimethoxybenzopyrano[4,3-b]benzopyran-7-yl]-4-hydroxycoumarin] | 287.9 | > 20 | > 20 | 100 | > 20 | > 20 | > 20 | 6.4 | 7.1 | 27 | – | – | – | – | –
Nc1nc(O)c2ncn(COC(CO)CO)c2n1 [Ganciclovir, 9-[(1,3-dihydroxy-2-propoxy)methyl]guanine, reference compound] | – | > 100 | 0.1 | >100 | 0.03 | 0.025 | > 100 | > 100 | 4.9 | > 100 | – | – | – | – | –
